Common to all, as to type: cell-based
Experiment [1] addresses T1, BB3 (Homo sapiens, UniProt P32247).
T1 construct: hIL-2Ra signal peptide (N); expressed in transfected cells
T1 sequence (P32247 2-399 limits assumed): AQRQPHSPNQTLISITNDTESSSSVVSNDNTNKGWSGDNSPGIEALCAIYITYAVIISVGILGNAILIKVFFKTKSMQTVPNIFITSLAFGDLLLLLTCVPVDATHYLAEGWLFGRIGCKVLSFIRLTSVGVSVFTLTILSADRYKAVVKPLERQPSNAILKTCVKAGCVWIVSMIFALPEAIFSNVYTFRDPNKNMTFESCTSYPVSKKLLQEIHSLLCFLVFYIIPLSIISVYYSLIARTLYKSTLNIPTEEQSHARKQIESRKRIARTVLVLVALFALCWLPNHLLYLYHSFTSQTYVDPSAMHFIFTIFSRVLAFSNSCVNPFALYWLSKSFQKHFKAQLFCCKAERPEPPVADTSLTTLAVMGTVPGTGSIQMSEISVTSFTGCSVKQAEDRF
Nature of the experiment: Dynamic mass redistribution (DMR), concentration-response.

In experiment [2] the target is T1, BB3. Nature of the experiment: IP1 accumulation (Gq/11), HTRF.
For experiment [3], the target named is T1, BB3. The experiment in a line: Real-time receptor internalization (TR-FRET), concentration-response.
Where [4] appears, read: DMR assays pEC50, receptor BB3, mean, SEM and n (3).
Where [5] appears, read: IP1 accumulation assays pEC50, receptor BB3, mean, SEM and n (2-4).
Where [6] appears, read: receptor BB3, mean, SEM and n (3), read-out: Internalization assays pEC50 (converted).
Where [7] appears, read: receptor BB3, mean, SEM and n (3), read-out: DMR assays pEC50 (converted).
Where [8] appears, read: receptor BB3, mean, SEM and n (2-4), read-out: IP1 accumulation assays pEC50 (converted).
The mark [9] stands for this setting: receptor BB3, mean, SEM and n (3).
Setting [10] is: receptor BB3, mean, SEM and n (2-4).

Residues, ends and D or L forms follow the SMILES beside them. Where only a bound is given, the exact number is not on record here.

On to `CSCC[C@H](NC(=O)[C@H](Cc1ccccc1)NC(=O)[C@H](Cc1cnc[nH]1)NC(=O)CNC(=O)[C@@H](NC(=O)[C@H](C)NC(=O)[C@H](Cc1c[nH]c2ccccc12)NC(=O)[C@H](CC(C)C)NC(=O)[C@H](CC(N)=O)NC(=O)CN)[C@@H](C)O)C(N)=O` [59 resynthesized], for which the results for the EC50 at BB3 [1] (setting [4]), at BB3 [2] (setting [5]) and at BB3 [3] (setting [6]) were 27.5 nM, 525 nM and 1550 nM, respectively.

As for `CC[C@H](C)[C@H](NC(=O)[C@H](CCCCN)NC(=O)[C@H](CO)NC(=O)[C@H](C)NC(=O)[C@H](CCCNC(=N)N)NC(=O)[C@H](CO)NC(=O)[C@H](CCCNC(=N)N)NC(=O)[C@@H]1CCCN1C(=O)[C@H](CCC(=O)O)NC(=O)[C@@H]1CCCN1C(=O)[C@H](CC(C)C)NC(=O)[C@H](CC(=O)O)NC(=O)[C@H](Cc1c[nH]c2ccccc12)NC(=O)[C@H](CO)NC(=O)[C@H](CC(C)C)NC(=O)[C@@H]1CCCN1C(=O)[C@H](C)N)C(=O)N[C@@H](CCCNC(=N)N)C(=O)N[C@H](C(=O)N[C@@H](Cc1c[nH]cn1)C(=O)N[C@@H](CO)C(=O)N[C@@H](CCCNC(=N)N)C(=O)NCC(=O)N[C@@H](CC(N)=O)C(=O)N[C@@H](CC(C)C)C(=O)N[C@@H](Cc1c[nH]c2ccccc12)C(=O)N[C@@H](C)C(=O)N[C@H](C(=O)NCC(=O)N[C@@H](Cc1c[nH]cn1)C(=O)N[C@@H](Cc1ccccc1)C(=O)N[C@@H](CCSC)C(N)=O)[C@@H](C)O)C(C)C` [59.1 (Phoenix)] (H-APLSWDLPEPRSRASKIRVHSRGNLWATGHFM-NH2), the EC50 is 49 nM on BB3 [1] (setting [7]), 224 nM on BB3 [2] (setting [8]) and 646 nM at BB3 [3] (setting [6]).

For `CC(C)C[C@H](NC(=O)[C@H](CCCCN)NC(=O)[C@H](CCC(N)=O)NC(=O)[C@@H](NC(=O)[C@H](CCCCN)NC(=O)[C@H](CO)NC(=O)[C@H](Cc1ccc(O)cc1)NC(=O)[C@H](Cc1c[nH]cn1)NC(=O)[C@H](Cc1ccccc1)NC(=O)[C@H](CC(C)C)NC(=O)[C@@H](N)Cc1ccccc1)[C@@H](C)O)C(N)=O` [67 resynthesized] (H-FLFHYSKTQKL-NH2), the figures for the EC50 on BB3 [1] (setting [7]), on BB3 [2] (setting [8]) and at BB3 [3] (setting [6]) were 2690 nM, 1660 nM and 34700 nM, respectively.

Take `CSCC[C@H](NC(=O)[C@H](Cc1ccccc1)NC(=O)CNC(=O)CNC(=O)[C@@H](N)Cc1ccc(O)cc1)C(=O)N[C@@H](CCCNC(=N)N)C(=O)N[C@@H](CCCNC(=N)N)C(=O)N[C@H](C(=O)NCC(=O)N[C@@H](CCCNC(=N)N)C(=O)N1CCC[C@H]1C(=O)N[C@@H](CCC(=O)O)C(=O)N[C@@H](Cc1c[nH]c2ccccc12)C(=O)N[C@@H](Cc1c[nH]c2ccccc12)C(=O)N[C@@H](CCSC)C(=O)N[C@@H](CC(=O)O)C(=O)N[C@@H](Cc1ccc(O)cc1)C(=O)N[C@@H](CCC(N)=O)C(=O)N[C@@H](CCCCN)C(=O)N[C@@H](CCCNC(=N)N)C(=O)N[C@@H](Cc1ccc(O)cc1)C(=O)NCC(=O)NCC(=O)N[C@@H](Cc1ccccc1)C(=O)N[C@@H](CC(C)C)C(=O)O)C(C)C` [158 resynthesized] (H-YGGFMRRVGRPEWWMDYQKRYGGFL-OH): the EC50 at BB3 [1] (setting [4]) is 110000 nM; at BB3 [2] (setting [5]) it was 3720 nM; at BB3 [3] (Internalization assays pEC50), 3890 nM.

Consider `CC(C)C[C@H](NC(=O)[C@H](Cc1ccccc1)NC(=O)CNC(=O)CNC(=O)[C@@H](N)Cc1ccc(O)cc1)C(=O)O` [158.2 (Phoenix)], for which the EC50 on BB3 [1] is 245 nM; on BB3 [2], 15.8 nM; at BB3 [3], 4680 nM.

Consider `CC(C)C[C@H](NC(=O)[C@H](CCCCN)NC(=O)[C@H](CCC(N)=O)NC(=O)[C@@H](NC(=O)[C@H](CCCCN)NC(=O)[C@H](CO)NC(=O)[C@H](Cc1ccc(O)cc1)NC(=O)[C@H](Cc1c[nH]cn1)NC(=O)[C@H](Cc1ccccc1)NC(=O)[C@H](CC(C)C)NC(=O)[C@@H](N)Cc1ccccc1)[C@@H](C)O)C(N)=O` [Neuromedin U pre-pro_(1-11)] (H-FLFHYSKTQKL-NH2), for which the EC50 on BB3 [1] (BB3, mean, SEM and n, read-out: pEC50, DMR (peak) (converted)) is 2290 nM; at BB3 [2] (BB3, mean, SEM and n, read-out: pEC50, IP1 (converted)), 2190 nM; at BB3 [3] (BB3, mean, SEM and n, read-out: pEC50, Internalization (AUC) (converted)), 31600 nM.

For `CSCC[C@H](NC(=O)[C@H](CCCNC(=N)N)NC(=O)[C@H](CCCNC(=N)N)NC(=O)[C@H](CCC(=O)O)NC(=O)[C@H](Cc1c[nH]cn1)NC(=O)[C@H](CC(C)C)NC(=O)[C@H](Cc1c[nH]cn1)NC(=O)[C@@H]1CCCN1C(=O)[C@@H](NC(=O)[C@H](CC(C)C)NC(=O)[C@H](CCC(N)=O)NC(=O)[C@H](CC(C)C)NC(=O)[C@H](CC(C)C)NC(=O)[C@@H]1CCCN1C(=O)[C@H](Cc1c[nH]cn1)NC(=O)[C@@H](NC(=O)[C@@H](NC(=O)[C@H](CO)NC(=O)[C@H](CO)NC(=O)[C@@H](NC(=O)[C@@H](NC(=O)[C@H](CC(N)=O)NC(=O)[C@H](CO)NC(=O)[C@H](CCCCN)NC(=O)CNC(=O)[C@H](CC(C)C)NC(=O)[C@H](CCCCN)NC(=O)[C@H](CCC(N)=O)NC(=O)[C@@H](NC(=O)[C@H](CCCCN)NC(=O)[C@H](CO)NC(=O)[C@H](Cc1ccc(O)cc1)NC(=O)[C@H](Cc1c[nH]cn1)NC(=O)[C@H](Cc1ccccc1)NC(=O)[C@H](CC(C)C)NC(=O)[C@@H](N)Cc1ccccc1)[C@@H](C)O)C(C)C)C(C)C)C(C)C)C(C)C)C(C)C)C(=O)O` [Peptide 67.2] (H-FLFHYSKTQKLGKSNVVSSVVHPLLQLVPHLHERRM-OH), the EC50 is 38000 nM on BB3 [1] (setting [7]) and 1170 nM on BB3 [2] (setting [8]).

With `CC(C)C[C@H](NC(=O)[C@H](CCCCN)NC(=O)[C@H](CCC(N)=O)NC(=O)[C@@H](NC(=O)[C@H](CCCCN)NC(=O)[C@H](CO)NC(=O)[C@H](Cc1ccc(O)cc1)NC(=O)[C@H](Cc1c[nH]cn1)NC(=O)[C@H](Cc1ccccc1)NC(=O)[C@H](CC(C)C)NC(=O)[C@@H](N)Cc1ccccc1)[C@@H](C)O)C(N)=O` [Peptide 67] (H-FLFHYSKTQKL-NH2; N-terminus assumed), the EC50 on BB3 [3] (SNAP-tagged BB3 in Flp-In T-REx 293 cells, TR-FRET 60 min, 37°C, AUC, mean ± SEM of 3-4 independent experiments in triplicate, read-out: pEC50, internalization, BB3 (converted)) was over 10000 nM.

As to `CSCC[C@H](NC(=O)[C@H](Cc1ccccc1)NC(=O)CNC(=O)CNC(=O)[C@@H](N)Cc1ccc(O)cc1)C(=O)N[C@@H](CCCNC(=N)N)C(=O)N[C@@H](CCCNC(=N)N)C(=O)N[C@H](C(N)=O)C(C)C` [Peptide 158.3], the EC50 on BB3 [1] (setting [4]) was 15500 nM; on BB3 [2] (setting [5]), 89.1 nM.

Consider `CSCC[C@H](NC(=O)[C@H](Cc1c[nH]c2ccccc12)NC(=O)[C@H](Cc1c[nH]c2ccccc12)NC(=O)[C@H](CCC(=O)O)NC(=O)[C@@H]1CCCN1C(=O)[C@H](CCCNC(=N)N)NC(=O)CNC(=O)[C@@H](N)C(C)C)C(=O)N[C@@H](CC(=O)O)C(=O)N[C@@H](Cc1ccc(O)cc1)C(=O)N[C@@H](CCC(N)=O)C(=O)N[C@@H](CCCCN)C(=O)N[C@@H](CCCNC(=N)N)C(=O)N[C@@H](Cc1ccc(O)cc1)C(=O)NCC(=O)NCC(=O)N[C@@H](Cc1ccccc1)C(=O)N[C@@H](CC(C)C)C(=O)O` [Peptide 158.4] (H-VGRPEWWMDYQKRYGGFL-OH), for which the EC50 on BB3 [1] was 8710 nM; at BB3 [2], 16200 nM; at BB3 [3], 10200 nM.

For the compound `CSCC[C@H](NC(=O)[C@H](Cc1ccccc1)NC(=O)CNC(=O)CNC(=O)[C@@H](N)Cc1ccc(O)cc1)C(=O)N[C@@H](CCCNC(=N)N)C(=O)N[C@@H](CCCNC(=N)N)C(=O)N[C@H](C(=O)NCC(=O)N[C@@H](CCCNC(=N)N)C(=O)N1CCC[C@H]1C(=O)N[C@@H](CCC(=O)O)C(=O)N[C@@H](Cc1c[nH]c2ccccc12)C(=O)N[C@@H](Cc1c[nH]c2ccccc12)C(=O)N[C@@H](CCSC)C(=O)N[C@@H](CC(=O)O)C(=O)N[C@@H](Cc1ccc(O)cc1)C(=O)N[C@@H](CCC(N)=O)C(=O)O)C(C)C` [Peptide 158.5] (H-YGGFMRRVGRPEWWMDYQ-OH), the EC50 was 69200 nM at BB3 [1] (setting [4]) and 100 nM on BB3 [2] (setting [5]).

In the case of `CSCC[C@H](NC(=O)[C@H](Cc1c[nH]c2ccccc12)NC(=O)[C@H](Cc1c[nH]c2ccccc12)NC(=O)[C@H](CCC(=O)O)NC(=O)[C@@H]1CCCN1)C(=O)N[C@@H](CC(=O)O)C(=O)N[C@@H](Cc1ccc(O)cc1)C(=O)N[C@@H](CCC(N)=O)C(=O)N[C@@H](CCCCN)C(=O)N[C@@H](CCCNC(=N)N)C(=O)N[C@@H](Cc1ccc(O)cc1)C(=O)NCC(=O)NCC(=O)N[C@@H](Cc1ccccc1)C(=O)N[C@@H](CC(C)C)C(=O)O` [Peptide 158.6] (H-PEWWMDYQKRYGGFL-OH), the EC50 at BB3 [1] was 832 nM; on BB3 [2], 31600 nM; on BB3 [3], 9550 nM.

Turning to FLFHYSKTQKL [67 original], the “DMR assays Emax (peak or AUC)” value on BB3 [1] (setting [9]) amounted to 199. In addition, the “IP1 accumulation assays Emax” value on BB3 [2] (setting [10]) came out at 62.1 nM. For the same compound, the “Internalization assays Emax (AUC)” value on BB3 [3] (setting [9]) is 14.6.

For the compound “YGGFMRRVGRPEWWMDYQKRYGGFL [158 original]”, the “IP1 accumulation assays Emax” value on BB3 [2] (setting [10]) is listed as 164.0 nM. For the same compound, the “Internalization assays Emax (AUC)” value at BB3 [3] (setting [9]) was determined as 16.0.

For the origin of these results see PMC6838683, “Discovery of Human Signaling Systems: Pairing Peptides to G Protein-Coupled Receptors” (Cell, 2019).
